For series [1] the following is noted: cited from earlier work; for Tg′: α-(1→4)-linked glucose hexamers, Levine and Slade; for temperature at which Tm and Tg curves cross (Tg′): phase diagram, FIG. 6.
The subject of a further series is oocytes. Nature of the series: cryomicroscopy: cumulative incidence of intracellular ice during cooling. In kind it is cell-based. Conditions: cooling 3.5° C./min. Here is the method: FIG. 13 is a graph with a set of curves showing the percentage of oocytes that have intracellular ice at various temperatures. For this assay, standard cryomicroscopy procedures were used to cool oocytes at a rate of 3.5° C./min (Cosman et al., Cryo-Letters 10:17-38, 1989). The oocytes were observed using a cryomicroscope to determine whether intracellular ice had formed. The presence of intracellular ice was easily detected based on the black color that appeared due to the light scattered by the ice crystals. This assay was used to test control oocytes incubated in isotonic media alone, oocytes incubated in media with 0.1 M extracellular trehalose, and oocytes injected with 0.1 M trehalose and incubated in media with 0.1 M extracellular trehalose. […] In the field of cryobiology, it has been established that the faster the cooling rate without formation of lethal intracellular ice, the greater the chance of cell survival.

Series [2] has as its system metaphase II mouse oocytes. In words: survival of cooled oocytes after overnight culture in modified HTF, hypertonic media (live/dead assay). The format is cell-based. The procedure: (§1) Once the cell is prepared for storage, it is stored in a manner appropriate to its preparation. Frozen cells can be stored at cryogenic temperatures and dried cells can be dry stored at ambient or other temperatures as appropriate. Recovery of stored cells is geared to the method of their preparation for storage. Dried cells are rehydrated, and frozen cells are thawed. Preferably, at least 25, 35, 50, 60, 70, 80, 90, 95, or 100% of the recovered cells are viable. Cell viability may be measured using any standard assay, such as a “live/dead” assay using the green dye calcein-AM to indicate viable cells and the red dye ethidium homodimer to indicate dead cells, according to the manufacturer's protocol (Molecular Probes, Inc.). In another preferred embodiment, at least 5, 10, 15, 25, 35, 50, 60, 70, 80, 90, or 95% of the recovered oocytes may be fertilized using standard in vitro fertilization techniques (see, for example, Summers et al., Biol. Reprod. 53:431-437, 1995). Preferably, the fertilized oocytes develop into 2-cell stage embryos, 4-cell stage embryos, morula-stage embryos, blastocyst-stage embryos, fetal-stage embryos, or viable offspring.
FIGS. 9A and 9B are a set of graphs showing the survival of cooled metaphase II mouse oocytes after overnight culture in modified HTF, hypertonic media as a function of extracellular trehalose concentration at −15° and −30°, respectively. These experiments were performed using a cooling rate of 1° C./min, with or without approximately 0.10 to 0.15 M intracellular trehalose. Cell viability was assessed using the live/dead assay described herein. […] As the extracellular amount of trehalose in the freezing solution was increased from 0.15 M (approximately the same amount as the intracellular trehalose) to 0.30 M or 0.50 M, the survival rate improved from about 18, to 55 or 85%, respectively.

Series [3] concerns metaphase II mouse oocytes. In words: survival of cooled oocytes after overnight culture in modified HTF media, isotonic (live/dead assay). Conditions: 0.50 M extracellular trehalose only; very slow cooling to −60° C. The format is cell-based. The procedure: as §1
Cell survival was measured using the live/dead assay. […] In FIG. 10, oocytes were cooled at a very slow cooling rate to an intermediate temperature (−60° C.). […]

The test system of series [4] is metaphase II mouse oocytes. Nature of the series: fertilization and blastocyst development of fresh oocytes cultured in modified HTF media. The format is cell-based. The procedure: Thus, a hypertonic media for the culturing of certain recovered cells was developed using a two-prong approach. First, a standard culture medium called HTF (human tubal fluid medium) was modified to minimize the concentration of electrolytes (see FIG. 7, components marked with down arrows) and to increase other nutrients and amino acids (see FIG. 7, components marked with up arrows). The osmolarity of this medium was determined using an osmometer. Because the osmolarity of this medium was approximately 285 mosm, which is close to the normal internal osmolarity of cells, this medium is called modified HTF, isotonic. Second, the water content of the medium was reduced to equally increase the concentrations of each component to achieve a final osmolarity of 320 mosm. This medium is called modified HTF, hypertonic, (see FIG. 7, last column).
To test the ability of modified HTF, isotonic and hypertonic media to support the fertilization and development of oocytes, these medias were used to culture fresh mouse metaphase II oocytes that had not been cyropreserved. […] If desired, the composition and hypertonicity of the culture medium may be further optimized to increase the number of blastocysts or viable offspring that are formed. For example, a culture medium having a higher osmolarity (such as 330, 340, 350, 360, 370, or 380 mosm) may better mimic oviductal fluid (which may have an osmolarity of at least 360 mosm) and thus further promote development of viable offspring (Van Winkle et al., J. Expt Zool. 253:215-219, 1990). Any other suitable hypertonic media with a osmolarity of at least 300, 310, 320, 330, 340, 350, 360, 370, 380, or more mosm may be used in preferred methods for culturing cells in vitro. These methods may be used to culture cells with or without intracellular sugar. These preferred medias may also be used before, during, or after storage of cryopreserved cells.

Where [5] appears, read: oocytes injected with 0.07 M trehalose, modified HTF, hypertonic media.

With cyclodextrin, in series [1], the “Tg′” value is −9 °C.
In the case of `C[S+](C)[O-]` [DMSO, dimethyl sulfoxide], the “temperature at which Tm and Tg curves cross (Tg′)” value in series [1] is “approximately −80 °C”.
Take maltohexaose: in series [1], the “Tg′” value is −14.5 °C.
With `OC[C@H]1O[C@H](O[C@H]2O[C@H](CO)[C@@H](O)[C@H](O)[C@H]2O)[C@H](O)[C@@H](O)[C@@H]1O` [trehalose], in series [1], the “temperature at which Tm and Tg curves cross (Tg′)” value was “approximately −30 °C”. The “incidence of intracellular ice formation” value in the series on oocytes (0.1 M extracellular trehalose versus isotonic media alone) is on record as “reduced”. For the same molecule, the “frequency of intracellular ice” value in the series with oocytes (0.1 M injected trehalose plus 0.1 M extracellular trehalose) is “further reduced”. The survival rate entry in series [2] (0.15 M extracellular trehalose in freezing solution, with approximately 0.10 to 0.15 M intracellular trehalose, cooling 1° C./min) is “about 18%”; in series [2] (0.30 M extracellular trehalose in freezing solution, with approximately 0.10 to 0.15 M intracellular trehalose, cooling 1° C./min), roughly 55%; in series [2] (0.50 M extracellular trehalose in freezing solution, with approximately 0.10 to 0.15 M intracellular trehalose, cooling 1° C./min), roughly 85%; in series [2] (cooled to −15° C. at 1° C./min, approximately 0.10 to 0.15 M intracellular trehalose versus none), “dramatically increased”; in series [2] (cooled to −30° C. at 1° C./min, approximately 0.10 to 0.15 M intracellular trehalose versus none), “dramatically increased”; in series [3] it was “some improvement over the control”. Also, in series [4] (intracellular trehalose 0.15 M), the “frequency of blastocyst formation” value was “reduced, but still significant”. Moreover, the frequency of fertilization result is recorded as “reduced, but still significant” in series [4] (intracellular trehalose 0.15 M) and “high frequency” in series [4] (setting [5]). Moreover, the “frequency of blastocyst development” value in series [4] (setting [5]) is listed as “high frequency”.

The values are drawn from patent US6673607B2, “Microinjection of cryoprotectants for preservation of cells” (priority 2000, dated 2004).
